Measured values published in patent US20200016159A1, “N3-CYCLICALLY SUBSTITUTED THIENOURACILS AND USE THEREOF” (Bayer Aktiengesellschaft, priority 2016, published 2020).

Target: T1, human adenosine A2b receptor (Homo sapiens, UniProt P29275)
T1 sequence (P29275 1-332): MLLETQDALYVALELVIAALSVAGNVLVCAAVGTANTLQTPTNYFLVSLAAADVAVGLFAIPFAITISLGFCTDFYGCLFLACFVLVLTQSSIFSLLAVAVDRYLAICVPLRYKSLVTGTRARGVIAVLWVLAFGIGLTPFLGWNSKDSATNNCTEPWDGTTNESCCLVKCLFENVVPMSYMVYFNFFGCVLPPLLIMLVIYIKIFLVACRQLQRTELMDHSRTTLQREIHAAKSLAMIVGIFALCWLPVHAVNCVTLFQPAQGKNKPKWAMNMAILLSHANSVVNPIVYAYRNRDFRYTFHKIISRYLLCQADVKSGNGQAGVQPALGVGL
Assay: Cellular in vitro reporter gene test for A2b receptor activity (antagonism of NECA)
Format: cell-based
Set-up: expressed in transfected cells; host or cells: CHO-K1 (Chinese hamster ovary) with CRE-luciferase reporter
Settings: recombinant CHO-K1 cells, CRE-luciferase reporter, co-incubation with EC50 concentration of NECA, 3 hours
Procedure: The identification of selective antagonists of the human adenosine A2b receptor and the quantification of the efficacy and selectivity of the compounds according to the invention was carried out with the aid of recombinant cell lines for the human adenosine receptors A1, A2a, A2b and A3. These cell lines were originally derived from an ovarepithelial cell of the hamster (Chinese Hamster Ovary, CHO-K1, American Type Culture Collection, Manassas, Va. 20108, USA). In addition to the respective recombinantly expressed adenosine receptor for testing the efficacy at the A1, A2a and A2b receptors, the cell lines contain a reporter gene construct where expression of the firefly (Photinus pyralis) luciferase is under the control of a promoter which can be activated via intracellular signal cascades by stimulation of the receptors with the (not subtype-selective) adenosine receptor agonist NECA (5′-N-ethylcarboxamidoadenosine) [S. J. Hill, J. G. Baker, S. Rhees, Curr. Opin. Pharmacol. 1, 526-532 (2001)].
In the case of the A2a and A2b cell lines, this is a minimal promoter having a plurality of cAMP-responsive elements (CRE). Stimulation of the Gs-coupled A2b or A2a receptors by NECA ultimately leads, via formation of cAMP, to CRE-dependent induction of luciferase expression, which is detected 3 hours after the start of the incubation with NECA using a detection solution in a suitable luminometer. For testing the antagonists, initially, in a pre-experiment, the concentration of NECA which, at the test day in question, results in half-maximum stimulation of luciferase expression (EC50 concentration) is determined. By joint incubation of this EC50 concentration of NECA with the substances to be tested, it is possible to determine their antagonistic activity.
Table 1 below lists the IC50 values from the A2b receptor assay for individual working examples (in some cases as means of a plurality of independent individual determinations and rounded to two significant figures; it may also be the case here that various independent preparations of the respective working example have been used): […]

| SMILES | IC50 [nM] |
| --- | --- |
| Cc1c(Cn2nc[nH]c2=O)sc2c1c(=O)n(C1CC1)c(=O)n2CC1CCCC1(F)F (single isomer, unassigned) [Example 207, 3-Cyclopropyl-1-[(2,2-difluorocyclopentyl)methyl]-5-methyl-6-[(5-oxo-4,5-dihydro-1H-1,2,4-triazol-1-yl)methyl]thieno[2,3-d]pyrimidine-2,4(1H,3H)-dione] | 910 |
| Cc1c(CN2CCNC2=O)sc2c1c(=O)n([C@H]1C[C@@H]1C)c(=O)n2CC1CCO1 (single isomer, unassigned) [Example 283] | 25 |
| Cc1c(CN2CCNC2=O)sc2c1c(=O)n(C1(C)CC1)c(=O)n2CCOC(F)(F)F [Example 75, 5-Methyl-3-(1-methylcyclopropyl)-6-[(2-oxoimidazolidin-1-yl)methyl]-1-[2-(trifluormethoxy)ethyl]thieno[2,3-d]pyrimidine-2,4(1H,3H)-dione] | 3.3 |
| COC(=O)N=C1NCCN1Cc1sc2c(c1C)c(=O)n(C1CCCC1)c(=O)n2CCC(F)(F)F [Example 186, Methyl [1-{[3-cyclopentyl-5-methyl-2,4-dioxo-1-(3,3,3-trifluoropropyl)-1,2,3,4-tetrahydrothieno[2,3-d]pyrimidin-6-yl]methyl}imidazolidin-2-ylidene]carbamate] | 7.9 |
| COC(=O)N=C1NCCN1Cc1sc2c(c1C)c(=O)n(C1CC1)c(=O)n2CCC(F)(F)F [Example 12, Methyl [1-{[3-cyclopropyl-5-methyl-2,4-dioxo-1-(3,3,3-trifluoropropyl)-1,2,3,4-tetrahydrothieno[2,3-d]pyrimidin-6-yl]methyl}imidazolidin-2-ylidene]carbamate] | 4.2 |
| Cc1c(CN2CCNC2=O)sc2c1c(=O)n(C1CC1C)c(=O)n2CCOC(F)(F)F (racemic) [Example 261, 5-Methyl-3-(2-methylcyclopropyl)-6-[(2-oxoimidazolidin-1-yl)methyl]-1-[2-(trifluoromethoxy)ethyl]thieno[2,3-d]pyrimidine-2,4(1H,3H)-dione] | 15 |
| Cc1c(CN2CCNC2=O)sc2c1c(=O)n(C1CC1C)c(=O)n2CC1CCOC1 (single isomer, unassigned) [Example 290, 5-Methyl-3-(2-methylcyclopropyl)-6-[(2-oxoimidazolidin-1-yl)methyl]-1-(tetrahydrofuran-3-ylmethyl)thieno[2,3-d]pyrimidine-2,4(1H,3H)-dione] | 270 |
| COC(=O)N=C1NCCN1Cc1sc2c(c1C)c(=O)n(C1CC1)c(=O)n2CC1CCCO1 (racemic) [Example 42, Methyl [1-{[3-cyclopropyl-5-methyl-2,4-dioxo-1-(tetrahydrofuran-2-ylmethyl)-1,2,3,4-tetrahydrothieno[2,3-d]pyrimidin-6-yl]methyl}imidazolidin-2-ylidene]carbamate] | 10 |
| Cc1c(CN2CCNC2=O)sc2c1c(=O)n(C1CC1C)c(=O)n2C (single isomer, unassigned) [Example 223, 1,5-Dimethyl-3-(2-methylcyclopropyl)-6-[(2-oxoimidazolidin-1-yl)methyl]thieno[2,3-d]pyrimidine-2,4(1H,3H)-dione] | 19 |
| COCCn1c(=O)n(C2(C(F)(F)F)CC2)c(=O)c2c(C)c(CN3CCNC3=NC(=O)OC)sc21 [Example 87, Methyl [1-({1-(2-methoxyethyl)-5-methyl-2,4-dioxo-3-[1-(trifluoromethyl)cyclopropyl]-1,2,3,4-tetrahydrothieno[2,3-d]pyrimidin-6-yl}methyl)imidazolidin-2-ylidene]carbamate] | 140 |
| COC(=O)N=C1NCCN1Cc1sc2c(c1C)c(=O)n([C@H]1C[C@H](OC)C1)c(=O)n2CCC(F)(F)F [Example 146, Methyl [1-{[3-(trans-3-methoxycyclobutyl)-5-methyl-2,4-dioxo-1-(3,3,3-trifluoropropyl)-1,2,3,4-tetrahydrothieno[2,3-d]pyrimidin-6-yl]methyl}imidazolidin-2-ylidene]carbamate] | 6.2 |
| Cc1c(CN2CCNC2=O)sc2c1c(=O)n(C1CC1C)c(=O)n2CCCF (single isomer, unassigned) [Example 92, 1-(3-Fluoropropyl)-5-methyl-3-(2-methylcyclopropyl)-6-[(2-oxoimidazolidin-1-yl)methyl]thieno[2,3-d]pyrimidine-2,4(1H,3H)-dione] | 2.8 |
| CCC1(n2c(=O)c3c(C)c(CN4CCNC4=O)sc3n(CCOC)c2=O)CC1 [Example 108, 3-(1-Ethylcyclopropyl)-1-(2-methoxyethyl)-5-methyl-6-[(2-oxoimidazolidin-1-yl)methyl]thieno[2,3-d]pyrimidine-2,4(1H,3H)-dione] | 110 |
| COCCn1c(=O)n(C2CC(F)(F)C2)c(=O)c2c(C)c(CN3CCNC3=NC#N)sc21 [Example 126, [1-{[3-(3,3-Difluorocyclobutyl)-1-(2-methoxyethyl)-5-methyl-2,4-dioxo-1,2,3,4-tetrahydrothieno[2,3-d]pyrimidin-6-yl]methyl}imidazolidin-2-ylidene]cyanamide] | 14 |
| Cc1c(CN2CCNC2=O)sc2c1c(=O)n(C1CC1C)c(=O)n2CC(F)F (racemic) [Example 234, 1-(2,2-Difluoroethyl)-5-methyl-3-(2-methylcyclopropyl)-6-[(2-oxoimidazolidin-1-yl)methyl]thieno[2,3-d]pyrimidine-2,4(1H,3H)-dione] | 1.9 |
| COCCn1c(=O)n(C2(C)CC2)c(=O)c2c(C)c(Cn3cc[nH]c3=O)sc21 [Example 217, 1-(2-Methoxyethyl)-5-methyl-3-(1-methylcyclopropyl)-6-[(2-oxo-2,3-dihydro-1H-imidazol-1-yl)methyl]thieno[2,3-d]pyrimidine-2,4(1H,3H)-dione] | 38 |
| Cc1c(CN2CCNC2=O)sc2c1c(=O)n([C@H]1C[C@@H]1C)c(=O)n2CC1CCC1 [Example 248, 1-(Cyclobutylmethyl)-5-methyl-3-[(1S,2S)-2-methylcyclopropyl]-6-[(2-oxoimidazolidin-1-yl)methyl]thieno[2,3-d]pyrimidine-2,4(1H,3H)-dione] | 1.2 |
| Cc1c(CN2CCNC2=O)sc2c1c(=O)n(C1CC1(C)C)c(=O)n2CCC(F)(F)F (racemic) [Example 100, 3-(2,2-Dimethylcyclopropyl)-5-methyl-6-[(2-oxoimidazolidin-1-yl)methyl]-1-(3,3,3-trifluoropropyl)thieno[2,3-d]pyrimidine-2,4(1H,3H)-dione] | 12 |
| Cc1c(CN2CCNC2=O)sc2c1c(=O)n(C1CC1C)c(=O)n2CC1CC(F)(F)C1 (single isomer, unassigned) [Example 254, 1-[(3,3-Difluorocyclobutyl)methyl]-5-methyl-3-(2-methylcyclopropyl)-6-[(2-oxoimidazolidin-1-yl)methyl]thieno[2,3-d]pyrimidine-2,4(1H,3H)-dione] | 7.2 |
| COCCn1c(=O)n(C2CCCC2)c(=O)c2c(C)c(CN3CCNC3=O)sc21 [Example 189, 3-Cyclopentyl-1-(2-methoxyethyl)-5-methyl-6-[(2-oxoimidazolidin-1-yl)methyl]thieno[2,3-d]pyrimidine-2,4(1H,3H)-dione] | 40 |
| Cc1c(CN2CCNC2=O)sc2c1c(=O)n(C1CC(F)(F)C1)c(=O)n2CCC(F)(F)F [Example 120, 3-(3,3-Difluorocyclobutyl)-5-methyl-6-[(2-oxoimidazolidin-1-yl)methyl]-1-(3,3,3-trifluoropropyl)thieno[2,3-d]pyrimidine-2,4(1H,3H)-dione] | 3.2 |
| COCCn1c(=O)n(C2CC2(C)C)c(=O)c2c(C)c(CN3CCNC3=O)sc21 (racemic) [Example 103, 3-(2,2-Dimethylcyclopropyl)-1-(2-methoxyethyl)-5-methyl-6-[(2-oxoimidazolidin-1-yl)methyl]thieno[2,3-d]pyrimidine-2,4(1H,3H)-dione] | 21 |
| Cc1c(CN2CCNC2=O)sc2c1c(=O)n([C@H]1C[C@@H]1C)c(=O)n2CC1CCO1 (stereo partly drawn) [Example 282, 5-Methyl-3-[(1S,2S)-2-methylcyclopropyl]-1-(oxetan-2-ylmethyl)-6-[(2-oxoimidazoliidin-1-yl)methyl]thieno[2,3-d]pyrimidine-2,4(1H,3H)-dione] | 4.1 |
